The record followed here is PMC9680877 (ACS Chemical Biology, 2022).

By Kd is commonly meant the equilibrium constant for the complex coming apart. High values mean lower affinity, low ones higher affinity.

Common to all, as to type: binding
In one assay the target is T1, TRIM11 (Homo sapiens, UniProt Q96F44).
T1 sequence (Q96F44 1-468): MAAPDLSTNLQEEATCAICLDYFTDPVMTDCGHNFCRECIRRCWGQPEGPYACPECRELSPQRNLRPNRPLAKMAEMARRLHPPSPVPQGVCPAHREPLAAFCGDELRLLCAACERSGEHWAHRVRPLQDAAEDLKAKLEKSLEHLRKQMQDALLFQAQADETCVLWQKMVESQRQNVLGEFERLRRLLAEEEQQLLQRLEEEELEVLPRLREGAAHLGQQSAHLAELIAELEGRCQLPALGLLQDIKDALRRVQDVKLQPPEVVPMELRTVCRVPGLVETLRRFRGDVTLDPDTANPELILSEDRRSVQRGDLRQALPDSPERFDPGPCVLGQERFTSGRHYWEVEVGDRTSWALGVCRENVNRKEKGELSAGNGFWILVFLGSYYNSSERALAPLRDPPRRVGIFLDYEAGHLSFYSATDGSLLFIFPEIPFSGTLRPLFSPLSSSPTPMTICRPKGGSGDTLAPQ
The assay can be described thus: dose-response competition pulldown with MS readout.

The target of the next assay is T2, MED15 (Homo sapiens, UniProt Q96RN5).
T2 sequence (Q96RN5 1-788): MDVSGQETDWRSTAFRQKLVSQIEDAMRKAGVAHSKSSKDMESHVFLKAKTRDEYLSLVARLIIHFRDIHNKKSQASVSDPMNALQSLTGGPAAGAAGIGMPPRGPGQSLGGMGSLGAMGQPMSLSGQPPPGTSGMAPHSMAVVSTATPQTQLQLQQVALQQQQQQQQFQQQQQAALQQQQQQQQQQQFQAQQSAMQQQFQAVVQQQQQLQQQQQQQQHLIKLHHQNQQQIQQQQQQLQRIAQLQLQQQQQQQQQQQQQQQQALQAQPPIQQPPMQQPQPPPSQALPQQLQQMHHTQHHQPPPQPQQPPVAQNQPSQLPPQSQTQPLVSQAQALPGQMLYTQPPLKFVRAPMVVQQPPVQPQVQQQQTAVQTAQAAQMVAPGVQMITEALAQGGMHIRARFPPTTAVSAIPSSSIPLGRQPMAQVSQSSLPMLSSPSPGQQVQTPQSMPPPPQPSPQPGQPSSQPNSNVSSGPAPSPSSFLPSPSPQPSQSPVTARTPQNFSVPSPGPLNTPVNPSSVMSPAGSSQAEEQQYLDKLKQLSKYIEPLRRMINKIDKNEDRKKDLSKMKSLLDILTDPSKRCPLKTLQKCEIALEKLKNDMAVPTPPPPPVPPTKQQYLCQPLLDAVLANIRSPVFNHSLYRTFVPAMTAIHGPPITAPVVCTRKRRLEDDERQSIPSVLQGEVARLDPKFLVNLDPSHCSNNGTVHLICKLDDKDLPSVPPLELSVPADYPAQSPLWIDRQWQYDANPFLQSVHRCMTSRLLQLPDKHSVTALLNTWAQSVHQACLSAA
Briefly: dose-response competition pulldown with MS readout.

The target in another assay is GATA1 (Homo sapiens, UniProt P15976). The assay can be described thus: dose-response competition pulldown with MS readout.
Sequence of GATA1 (P15976 whole entry): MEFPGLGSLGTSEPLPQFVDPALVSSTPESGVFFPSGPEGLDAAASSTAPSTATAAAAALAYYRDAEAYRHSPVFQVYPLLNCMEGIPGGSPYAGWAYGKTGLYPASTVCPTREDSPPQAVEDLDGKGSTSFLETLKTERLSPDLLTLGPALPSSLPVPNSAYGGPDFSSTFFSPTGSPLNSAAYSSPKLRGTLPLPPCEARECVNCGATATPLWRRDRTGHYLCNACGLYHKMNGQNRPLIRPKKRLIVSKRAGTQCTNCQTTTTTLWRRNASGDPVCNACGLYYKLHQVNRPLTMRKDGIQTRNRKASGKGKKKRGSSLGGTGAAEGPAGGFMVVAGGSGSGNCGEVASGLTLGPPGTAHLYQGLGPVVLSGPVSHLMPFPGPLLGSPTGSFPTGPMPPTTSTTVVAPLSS
Another assay deals with T3, UBAP2L (Homo sapiens, UniProt Q14157).
T3 sequence (Q14157 1-1087): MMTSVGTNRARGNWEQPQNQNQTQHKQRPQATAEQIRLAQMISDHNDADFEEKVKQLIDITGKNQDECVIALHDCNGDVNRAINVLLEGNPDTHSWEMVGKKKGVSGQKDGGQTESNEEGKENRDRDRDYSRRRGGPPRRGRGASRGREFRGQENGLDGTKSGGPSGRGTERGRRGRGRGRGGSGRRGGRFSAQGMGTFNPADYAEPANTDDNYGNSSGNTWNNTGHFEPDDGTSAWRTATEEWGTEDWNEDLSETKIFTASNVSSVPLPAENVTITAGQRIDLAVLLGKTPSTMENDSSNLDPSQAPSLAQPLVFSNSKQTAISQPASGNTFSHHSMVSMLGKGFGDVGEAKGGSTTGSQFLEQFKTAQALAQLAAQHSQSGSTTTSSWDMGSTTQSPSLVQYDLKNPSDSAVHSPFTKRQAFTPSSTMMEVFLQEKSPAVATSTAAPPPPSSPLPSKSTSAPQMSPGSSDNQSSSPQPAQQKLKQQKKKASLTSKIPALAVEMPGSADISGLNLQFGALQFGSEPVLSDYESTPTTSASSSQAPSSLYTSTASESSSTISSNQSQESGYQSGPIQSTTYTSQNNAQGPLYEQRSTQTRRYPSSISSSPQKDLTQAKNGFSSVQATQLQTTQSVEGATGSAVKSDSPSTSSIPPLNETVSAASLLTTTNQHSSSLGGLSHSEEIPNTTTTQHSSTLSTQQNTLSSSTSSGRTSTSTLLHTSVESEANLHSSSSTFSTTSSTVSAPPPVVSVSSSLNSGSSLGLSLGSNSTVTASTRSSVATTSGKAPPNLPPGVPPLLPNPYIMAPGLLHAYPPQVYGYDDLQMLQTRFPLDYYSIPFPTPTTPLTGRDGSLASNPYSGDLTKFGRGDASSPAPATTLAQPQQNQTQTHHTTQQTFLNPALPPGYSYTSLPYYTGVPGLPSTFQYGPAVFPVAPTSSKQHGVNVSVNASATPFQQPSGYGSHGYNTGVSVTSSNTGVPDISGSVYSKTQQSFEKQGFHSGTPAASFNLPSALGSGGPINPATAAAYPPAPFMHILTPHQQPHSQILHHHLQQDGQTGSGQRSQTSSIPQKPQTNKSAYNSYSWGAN
Briefly: dose-response competition pulldown with MS readout.

In a further assay the target is T4, TCF3 (Homo sapiens, UniProt P15923).
T4 sequence (P15923 1-654): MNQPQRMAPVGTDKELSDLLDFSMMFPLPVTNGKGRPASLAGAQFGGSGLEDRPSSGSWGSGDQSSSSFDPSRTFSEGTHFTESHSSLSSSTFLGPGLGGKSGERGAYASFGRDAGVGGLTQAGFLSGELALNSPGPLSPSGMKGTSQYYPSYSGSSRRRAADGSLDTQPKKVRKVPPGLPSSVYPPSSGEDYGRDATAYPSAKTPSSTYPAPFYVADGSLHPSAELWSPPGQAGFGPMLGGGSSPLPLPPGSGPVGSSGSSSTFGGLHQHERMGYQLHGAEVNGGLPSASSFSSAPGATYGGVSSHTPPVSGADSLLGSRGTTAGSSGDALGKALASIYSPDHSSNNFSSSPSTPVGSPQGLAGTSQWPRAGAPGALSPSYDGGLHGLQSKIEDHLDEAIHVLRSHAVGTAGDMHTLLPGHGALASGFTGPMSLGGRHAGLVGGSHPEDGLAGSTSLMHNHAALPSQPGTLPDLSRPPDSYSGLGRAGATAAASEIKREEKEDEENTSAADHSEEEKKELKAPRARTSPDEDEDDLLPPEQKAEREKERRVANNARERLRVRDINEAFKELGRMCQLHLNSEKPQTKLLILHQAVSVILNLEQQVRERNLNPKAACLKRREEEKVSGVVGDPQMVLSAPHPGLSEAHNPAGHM
Briefly: dose-response competition pulldown with MS readout.

A further assay addresses T5, GATA2 (Homo sapiens, UniProt P23769).
T5 sequence (P23769 1-480): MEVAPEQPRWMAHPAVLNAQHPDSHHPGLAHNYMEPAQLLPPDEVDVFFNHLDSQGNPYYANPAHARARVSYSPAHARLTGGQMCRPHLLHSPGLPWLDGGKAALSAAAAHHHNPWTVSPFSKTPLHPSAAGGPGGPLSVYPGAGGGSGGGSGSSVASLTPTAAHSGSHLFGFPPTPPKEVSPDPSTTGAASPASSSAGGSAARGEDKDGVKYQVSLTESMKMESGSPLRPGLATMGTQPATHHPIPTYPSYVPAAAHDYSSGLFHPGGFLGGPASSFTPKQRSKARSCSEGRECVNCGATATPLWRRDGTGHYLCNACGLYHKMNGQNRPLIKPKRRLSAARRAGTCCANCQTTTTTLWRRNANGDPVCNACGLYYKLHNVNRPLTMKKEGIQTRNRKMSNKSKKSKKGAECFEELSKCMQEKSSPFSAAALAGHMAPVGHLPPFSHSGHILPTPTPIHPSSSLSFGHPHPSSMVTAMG
Briefly: dose-response competition pulldown with MS readout.

The next assay addresses T6, OTUD4 (Homo sapiens, UniProt Q01804).
T6 sequence (Q01804 1-1114): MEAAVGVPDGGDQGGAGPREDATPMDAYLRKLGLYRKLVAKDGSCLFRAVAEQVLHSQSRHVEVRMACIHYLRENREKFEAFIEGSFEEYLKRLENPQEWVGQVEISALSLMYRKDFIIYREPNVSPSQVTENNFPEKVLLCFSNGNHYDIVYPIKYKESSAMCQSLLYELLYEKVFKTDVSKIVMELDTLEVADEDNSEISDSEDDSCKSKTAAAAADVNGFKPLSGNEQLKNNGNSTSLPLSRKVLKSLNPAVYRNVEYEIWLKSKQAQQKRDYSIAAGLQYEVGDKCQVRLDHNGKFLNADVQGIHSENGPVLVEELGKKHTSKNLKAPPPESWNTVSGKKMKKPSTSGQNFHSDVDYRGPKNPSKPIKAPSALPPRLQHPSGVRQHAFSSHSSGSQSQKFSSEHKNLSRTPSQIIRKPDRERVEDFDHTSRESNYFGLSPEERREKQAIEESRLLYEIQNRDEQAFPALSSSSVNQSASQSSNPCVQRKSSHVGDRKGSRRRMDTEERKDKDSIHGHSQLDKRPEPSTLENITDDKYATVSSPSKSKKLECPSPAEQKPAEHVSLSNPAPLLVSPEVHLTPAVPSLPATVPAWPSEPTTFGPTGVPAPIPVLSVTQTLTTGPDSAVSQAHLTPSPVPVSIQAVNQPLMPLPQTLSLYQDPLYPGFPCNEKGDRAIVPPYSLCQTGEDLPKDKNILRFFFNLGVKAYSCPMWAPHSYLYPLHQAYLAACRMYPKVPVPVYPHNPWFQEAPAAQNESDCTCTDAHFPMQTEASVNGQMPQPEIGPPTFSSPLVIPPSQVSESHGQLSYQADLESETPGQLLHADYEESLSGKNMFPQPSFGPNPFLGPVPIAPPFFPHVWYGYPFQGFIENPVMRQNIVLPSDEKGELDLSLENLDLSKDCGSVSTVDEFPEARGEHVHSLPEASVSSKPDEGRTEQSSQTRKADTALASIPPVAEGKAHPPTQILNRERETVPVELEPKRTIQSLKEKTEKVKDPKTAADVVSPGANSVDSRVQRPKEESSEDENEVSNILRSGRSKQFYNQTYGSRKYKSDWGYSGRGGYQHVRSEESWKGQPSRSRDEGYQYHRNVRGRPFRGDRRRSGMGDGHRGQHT
The assay can be described thus: dose-response competition pulldown with MS readout.

In a further assay the target is CNOT1 (Homo sapiens, UniProt A5YKK6). The assay can be described thus: dose-response competition pulldown with MS readout. The settings on record: SW-620 lysate; free FAD vs photo-immobilized FAD beads.
Sequence of CNOT1 (A5YKK6 whole entry): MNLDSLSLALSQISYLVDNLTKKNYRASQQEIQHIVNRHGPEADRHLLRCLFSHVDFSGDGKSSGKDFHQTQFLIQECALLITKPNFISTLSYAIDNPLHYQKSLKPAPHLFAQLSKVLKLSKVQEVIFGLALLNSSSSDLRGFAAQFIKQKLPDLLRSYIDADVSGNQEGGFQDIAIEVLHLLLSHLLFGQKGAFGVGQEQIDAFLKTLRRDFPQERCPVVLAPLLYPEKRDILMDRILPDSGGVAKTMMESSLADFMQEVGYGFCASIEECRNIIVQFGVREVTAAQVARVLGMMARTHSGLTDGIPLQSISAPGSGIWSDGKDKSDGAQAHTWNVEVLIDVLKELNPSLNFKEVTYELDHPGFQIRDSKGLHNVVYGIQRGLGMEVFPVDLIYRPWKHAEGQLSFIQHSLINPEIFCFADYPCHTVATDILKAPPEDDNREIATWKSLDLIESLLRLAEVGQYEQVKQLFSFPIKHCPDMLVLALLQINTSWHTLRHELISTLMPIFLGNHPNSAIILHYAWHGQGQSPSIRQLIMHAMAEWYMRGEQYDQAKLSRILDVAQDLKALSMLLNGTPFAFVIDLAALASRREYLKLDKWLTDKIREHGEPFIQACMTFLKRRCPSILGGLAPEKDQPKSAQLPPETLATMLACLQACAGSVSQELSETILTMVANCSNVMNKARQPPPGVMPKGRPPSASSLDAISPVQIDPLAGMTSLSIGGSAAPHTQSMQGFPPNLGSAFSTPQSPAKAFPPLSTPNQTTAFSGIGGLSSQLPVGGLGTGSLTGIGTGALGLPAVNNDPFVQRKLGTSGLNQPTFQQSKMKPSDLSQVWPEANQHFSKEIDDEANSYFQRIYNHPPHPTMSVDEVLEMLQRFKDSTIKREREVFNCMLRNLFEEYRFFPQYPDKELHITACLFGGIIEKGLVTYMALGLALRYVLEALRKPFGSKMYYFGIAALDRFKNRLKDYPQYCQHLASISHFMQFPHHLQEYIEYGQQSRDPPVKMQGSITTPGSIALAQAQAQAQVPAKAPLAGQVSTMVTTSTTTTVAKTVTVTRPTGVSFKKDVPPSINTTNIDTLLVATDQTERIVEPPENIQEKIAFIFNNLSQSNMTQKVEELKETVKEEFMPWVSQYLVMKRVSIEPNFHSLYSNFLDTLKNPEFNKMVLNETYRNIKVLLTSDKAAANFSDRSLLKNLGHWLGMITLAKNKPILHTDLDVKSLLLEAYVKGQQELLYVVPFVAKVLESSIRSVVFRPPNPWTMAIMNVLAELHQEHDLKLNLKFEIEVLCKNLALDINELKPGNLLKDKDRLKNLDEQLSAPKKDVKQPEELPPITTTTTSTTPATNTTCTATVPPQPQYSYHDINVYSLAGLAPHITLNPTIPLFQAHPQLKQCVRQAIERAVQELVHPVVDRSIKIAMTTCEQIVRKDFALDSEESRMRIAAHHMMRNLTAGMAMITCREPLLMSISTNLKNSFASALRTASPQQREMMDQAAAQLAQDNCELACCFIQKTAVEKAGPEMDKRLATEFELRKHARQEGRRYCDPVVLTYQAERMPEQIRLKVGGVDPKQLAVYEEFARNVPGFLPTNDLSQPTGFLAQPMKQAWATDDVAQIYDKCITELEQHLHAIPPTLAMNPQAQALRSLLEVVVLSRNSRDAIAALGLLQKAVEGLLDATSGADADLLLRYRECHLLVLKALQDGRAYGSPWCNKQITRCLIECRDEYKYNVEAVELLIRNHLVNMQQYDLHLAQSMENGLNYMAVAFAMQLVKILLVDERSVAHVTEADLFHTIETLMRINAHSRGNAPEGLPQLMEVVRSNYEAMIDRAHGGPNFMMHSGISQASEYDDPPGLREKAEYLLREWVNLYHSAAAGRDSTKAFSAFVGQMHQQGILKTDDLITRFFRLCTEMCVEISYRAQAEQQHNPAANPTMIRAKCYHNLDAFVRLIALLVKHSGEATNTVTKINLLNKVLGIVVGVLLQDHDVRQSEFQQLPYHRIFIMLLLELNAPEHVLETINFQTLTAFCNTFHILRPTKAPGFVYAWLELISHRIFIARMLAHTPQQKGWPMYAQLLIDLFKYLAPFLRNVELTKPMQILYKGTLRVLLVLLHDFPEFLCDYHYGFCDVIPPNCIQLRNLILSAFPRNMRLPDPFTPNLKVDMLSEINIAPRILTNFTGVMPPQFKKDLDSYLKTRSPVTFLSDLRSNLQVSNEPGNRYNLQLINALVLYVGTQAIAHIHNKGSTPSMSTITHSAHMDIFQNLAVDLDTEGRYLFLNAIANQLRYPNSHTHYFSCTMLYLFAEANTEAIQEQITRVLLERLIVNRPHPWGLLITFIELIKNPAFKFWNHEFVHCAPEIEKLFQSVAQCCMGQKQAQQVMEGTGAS
The subject of the next assay is kinases. Briefly: Kinobeads profiling. The settings on record: latest version of Kinobeads, without immobilized staurosporine.

Take `Cc1cc2nc3c(=O)[nH]c(=O)nc-3n(C[C@H](O)[C@H](O)[C@H](O)COP(=O)(O)OP(=O)(O)OC[C@H]3O[C@@H](n4cnc5c(N)ncnc54)[C@H](O)[C@@H]3O)c2cc1C` [FAD, flavin adenine dinucleotide]: the dissociation constant (Kd) turned out to be 186 nM on TRIM11; 14 nM on MED15; 20 nM on GATA1; 36 nM at UBAP2L; 78 nM at TCF3; 7 nM at GATA2. On OTUD4, this compound came in with a Kd of 11 nM. In addition, the “CNOT1 bound by the matrix but not competed up to” value at CNOT1 is over 100 µM.
Consider `CN[C@@H]1C[C@H]2O[C@@](C)([C@@H]1OC)n1c3ccccc3c3c4c(c5c6ccccc6n2c5c31)C(=O)NC4` [Staurosporine], for which the “number of kinase targets with affinities below 10 μM” value with kinases amounted to 94.
